Source: the Bradley open melting point set (2014)
“And” between values parts separate entries of the source, which are not always exact repeats. Identical values can stand only once.

Row | melting point | SMILES
1 | 142 °C | OB(O)c1ccoc1 [furan-3-boronic acid]
2 | 150 °C and 146 °C (3×) and 147 °C | OC[C@H]1O[C@H](O)[C@H](O)[C@@H](O)[C@@H]1O [glucose]
3 | 164 °C | N=C(N)NCC1COc2ccccc2O1 (centres undefined) [guanoxan]
4 | -43 °C | CCCCCCC=O [heptanal]
5 | 228 °C | COc1ccc([C@@H]2CC(=O)c3c(O)cc(O)cc3O2)cc1O [hesperetin]
6 | 165 °C | Cc1c(C)c(C)c(C)c(C)c1C [hexamethylbenzene]
7 | 101 °C | CCCCCC(N)=O [hexanamide]
8 | 190 °C | O=C(O)CNC(=O)c1ccccc1 [hippuric acid]
9 | 142 °C | O=C1Cc2ccccc2C(=O)O1 [homophthalic anhydride]
10 | 222 °C | O=C1CNC(=O)N1 [hydantoin]
11 | 269 °C | NS(=O)(=O)c1cc2c(cc1Cl)NCNS2(=O)=O [hydrochlorothiazide]
12 | 214 °C | C[C@]12CCC(=O)C=C1CC[C@@H]1[C@@H]2[C@@H](O)C[C@@]2(C)[C@H]1CC[C@]2(O)C(=O)CO [hydrocortisone] [listing 1 of 2 here]
13 | 221 °C | C[C@]12CCC(=O)C=C1CC[C@@H]1[C@@H]2[C@@H](O)C[C@@]2(C)[C@H]1CC[C@]2(O)C(=O)CO [hydrocortisone] [listing 2 of 2 here]
14 | 134 °C | Cc1ccc(S(=O)(=O)OI(O)c2ccccc2)cc1 [hydroxy(tosyloxy)iodobenzene]
15 | 75 °C | CC(C)Cc1ccc(C(C)C(=O)O)cc1 (centres undefined) [ibuprofen]
16 | 114 °C | CC(C(O)c1ccc(O)cc1)N1CCC(Cc2ccccc2)CC1 (centres undefined) [ifenprodil]
17 | -51 °C | c1ccc2c(c1)CCC2 [indane]
18 | 173 °C | OB(O)c1ccc2[nH]ccc2c1 [indole-5-boronic acid]
19 | 208 °C | O=C(NC1CCN(CCc2c[nH]c3ccccc23)CC1)c1ccccc1 [indoramin]
20 | -31 °C | Ic1ccccc1 [iodobenzene]
21 | 122 °C | IC(I)I [iodoform]
22 | 115 °C | CC(C)Oc1ccc2c(=O)c(-c3ccccc3)coc2c1 [ipriflavone]

Row | melting point | SMILES
23 | 114 °C | O=C(O)CCCCC=C(c1ccccc1)c1cccnc1 [isbogrel]
24 | -78 °C | CC(=O)OCCC(C)C [isoamyl_acetate]
25 | -85 °C | CC(C)CN [isobutylamine]
26 | 129 °C | CC(C)C(N)=O [isobutyramide]
27 | 1 °C | CC(C)C(=O)c1ccccc1 [isobutyrophenone]
28 | -10 °C | C/C=C/c1ccc(O)c(OC)c1 [isoeugenol, cis trans]
29 | 171 °C | NNC(=O)c1ccncc1 [isoniazid]
30 | 172 °C | NNC(=O)c1ccncc1 [isonicotinic acid hydrazide]
31 | 270 °C | O=C(O)c1cc[n+]([O-])cc1 [isonicotinic acid n-oxide]
32 | -78 °C | CC(=O)OCCC(C)C [isopentyl acetate]
33 | 148 °C | COC(=O)c1cccc(C(N)=O)c1 [isophthalic_acid,_methylester_amide]
34 | -27 °C | CC(=O)CC(=O)OC(C)C [isopropyl acetoacetate]
35 | 89 °C | CC(C)C(C(=O)O)C(=O)O [isopropylmalonic acid]
36 | -29.3 °C | CC(C)CC(=O)O [isovaleric acid]
37 | 94 °C (2×) and 93 °C | CC(C(=O)O)c1cccc(C(=O)c2ccccc2)c1 (centres undefined) [ketoprofen]
38 | 188 °C | CC(CCc1ccccc1)NCC(O)c1ccc(O)c(C(N)=O)c1 (centres undefined) [labetalol]
39 | 174 °C | CC[C@H](C)C(=O)O[C@H]1C[C@@H](C)C=C2C=C[C@H](C)[C@H](CC[C@@H]3C[C@@H](O)CC(=O)O3)[C@H]21 [lovastatin]
40 | 120 °C | O=[N+]([O-])c1cccc(C=NO)c1 [m-Nitrobenzaldehyde oxime]
41 | 97 °C | CC(=O)c1cccc(N)c1 [m-aminoacetophenone]
42 | 125 °C | Nc1cccc(O)c1 [m-aminophenol]
43 | 0 °C | COc1cccc(N)c1 [m-anisidine]
44 | 157 °C | O=C(O)c1cccc(Br)c1 [m-bromobenzoic acid]

Row | melting point | SMILES
45 | 28 °C | N#CCc1cccc(Br)c1 [m-bromophenylacetonitrile]
46 | 87 °C | N#CCc1cccc(C#N)c1 [m-cyano_phenylacetonitrile]
47 | -63 °C | CC(C)c1cccc(C(C)C)c1 [m-diisopropylbenzene]
48 | 58 °C | O=Cc1cccc(I)c1 [m-iodobenzaldehyde]
49 | 110 °C | Cc1cccc(C(=O)O)c1 [m-toluic_acid]
50 | 73 °C | Cc1cccc(C(=O)CC#N)c1 [m-toluoylacetonitrile]
51 | 96 °C | C=Cc1cccc(C(=O)O)c1 [m-vinylbenzoic_acid]
52 | 134 °C | O=C(O)C=CC(=O)O [maleic acid]
53 | 168 °C | OC[C@@H](O)[C@@H](O)[C@H](O)[C@H](O)CO [mannitol]
54 | 92 °C | CNCCCC12CCC(c3ccccc31)c1ccccc12 [maprotiline]
55 | 100 °C | CCc1c(C)[nH]c2ccc(N(C)C)cc12 [medmain]
56 | 254 °C | Cc1cnc(s1)NC(=O)C\3=C(/O)c2ccccc2S(=O)(=O)N/3C [meloxicam]
57 | 106 °C | Cc1cc(CCN2CCN(c3cccc(Cl)c3)CC2)n[nH]1 [mepiprazole]
58 | 169 °C | Cc1cc(C)c(CC(=O)O)c(C)c1 [mesitylacetic acid]
59 | 79 °C | Cc1cc(C)c(CC#N)c(C)c1 [mesitylacetonitrile]
60 | 34.5 °C and 33 °C | C[C@H](O)[C@@H](C)O [meso-2,3-butanediol]
61 | 135 °C | O[C@H](c1ccccc1)[C@@H](O)c1ccccc1 [meso-hydrobenzoin]
62 | 100 °C | CC(C)NCC(O)c1cc(O)cc(O)c1 (centres undefined) [metaproterenol]
63 | 16 °C | C=C(C)C(=O)O [methacrylic acid]
64 | 90 °C | CS(N)(=O)=O [methanesulfonamide]
65 | 87 °C | CN1CCC(CN2c3ccccc3Sc3ccccc32)C1 (centres undefined) [methdilazine]

The next lines start with the compound.

Row | SMILES | melting point
66 | CCOC(=O)c1ccc(C(C)=O)cc1 [ethyl_p-acetylbenzoate] | 55 °C
67 | CCOC(=O)c1ccc(C#N)cc1 [ethyl_p-cyanobenzoate] | 54 °C
68 | NCCN [ethylenediamine] | 10 °C
69 | CCOC(=O)c1ccc(O)cc1 [ethylparaben] | 116 °C
70 | COP(=S)(OC)Oc1cc(Cl)c(Cl)cc1Cl [fenchlorphos] | 35 °C
71 | CC1(C)C(=O)[C@@]2(C)CC[C@@H]1C2 [fenchone] | 6 °C
72 | c1ccc(C(CCN2CCCCC2)c2ccccc2)cc1 [fenpiprane] | 41 °C
73 | O=C(O)c1ccccc1Nc1cccc(C(F)(F)F)c1 [flufenamic acid] | 134 °C
74 | CC1CCc2cc(F)cc3c(=O)c(C(=O)O)cn1c23 (centres undefined) [flumequine] | 253 °C
75 | c1ccc2c(c1)Cc1ccccc1-2 [fluorene] | 116 °C
76 | O=C1OC2(c3ccc(O)cc3Oc3cc(O)ccc32)c2ccccc21 [fluorescein] | 320 °C
77 | O=[N+]([O-])c1ccc(Oc2ccc(C(F)(F)F)cc2[N+](=O)[O-])cc1 [fluorodifen] | 94 °C
78 | CF [fluoromethane] | -142 °C
79 | CCOC(=O)Nc1ccc(NCc2ccc(F)cc2)nc1N [flupirtine] | 114 °C
80 | CC(C(=O)O)c1ccc(-c2ccccc2)c(F)c1 (centres undefined) [flurbiprofen] [listing 1 of 2 here] | 110 °C
81 | CC(C(=O)O)c1ccc(-c2ccccc2)c(F)c1 (centres undefined) [flurbiprofen] [listing 2 of 2 here] | 110 °C
82 | O=CNc1ccccc1 [formanilide] | 47 °C
83 | O=C(O)c1ccccc1OP(=O)(O)O [fosfosal] | 168 °C
84 | O=C(O)/C=C/C(=O)O [fumaric acid] | 300 °C
85 | CCC1(c2ccccc2)CCC(=O)NC1=O (centres undefined) [glutethimide] | 87.5 °C
86 | c1ccc(OCC2CO2)cc1 (centres undefined) [glycidyl phenyl ether] | 4 °C
87 | CCC1(C2=CCCCCC2)C(=O)NC(=O)NC1=O [heptabarbital] [listing 1 of 2 here] | 174 °C

Row | SMILES | melting point
88 | CCC1(C2=CCCCCC2)C(=O)NC(=O)NC1=O [heptabarbital] [listing 2 of 2 here] | 174 °C
89 | ClC1/C=C\C2C3(Cl)C(\Cl)=C(\Cl)C(Cl)(C12)C3(Cl)Cl (centres undefined) [heptachlor] | 95 °C and 95.5 °C
90 | CC1(c2ccccc2)C(=O)NC(=O)NC1=O [heptobarbital] | 228 °C
91 | CC(=O)Oc1ccc2c3c1O[C@H]1[C@@H](OC(C)=O)C=C[C@H]4[C@@H](C2)N(C)CC[C@@]341 [heroin] | 173 °C
92 | Clc1c(Cl)c(Cl)c(Cl)c(Cl)c1Cl [hexachlorobenzene] [listing 1 of 2 here] | 231 °C
93 | Clc1c(Cl)c(Cl)c(Cl)c(Cl)c1Cl [hexachlorobenzene] [listing 2 of 2 here] | 230 °C and 229 °C
94 | c1ccc(NNc2ccccc2)cc1 [hydrazobenzene] | 125 °C
95 | O=P1(NCCCl)OCCCN1CCCl (centres undefined) [ifosfamide] | 45.5 °C and 48 °C
96 | CCOP(=S)(OCC)Oc1nc(Cl)n(C(C)C)n1 [isazophos] | 25 °C
97 | O=C(Cl)c1cccc(C(=O)Cl)c1 [isophthaloyl dichloride] | 44 °C
98 | C=CC(=C)C [isoprene] | -146 °C
99 | CC(C)OC(=O)Nc1ccccc1 [isopropyl n-phenylcarbamate] | 88 °C
100 | O=[N+]([O-])O[C@H]1CO[C@H]2[C@@H]1OC[C@H]2O[N+](=O)[O-] [isosorbide dinitrate] | 70 °C
101 | O=C(O)c1nn(Cc2ccc(Cl)cc2Cl)c2ccccc12 [lonidamine] | 207 °C
102 | O=C1Nc2ccc(Cl)cc2C(c2ccccc2Cl)=NC1O (centres undefined) [lorazepam] | 167 °C
103 | OC[C@@H]1CCCN2CCCC[C@H]12 [lupinine] | 64 °C
104 | Nc1cccc([N+](=O)[O-])c1 [m-nitroaniline] | 114 °C
105 | Cc1cccc(N)c1 [m-toluidine] | -30 °C
106 | CCCC(C)(COC(N)=O)COC(N)=O [meprobamate] [listing 1 of 2 here] | 104 °C
107 | CCCC(C)(COC(N)=O)COC(N)=O [meprobamate] [listing 2 of 2 here] | 105 °C
108 | CC(=O)C=C(C)C [mesityl oxide] | -59 °C
109 | C=C(C)CC1(CC)C(=O)NC(=S)NC1=O [methallatal] | 160 °C
